Test results as given in paper PMC9147192, “Small Molecule Arranged Thermal Proximity Coaggregation (smarTPCA)—A Novel Approach to Characterize Protein–Protein Interactions in Living Cells by Similar Isothermal Dose–Responses” (International Journal of Molecular Sciences, 2022).

Assays:
UNC119B = molecular target: T1, UNC119B (Homo sapiens, UniProt A6NIH7); experiment: TPP-CCR in living HL-60 cells; type: cell-based
T1 construct: endogenous in cells; host or cells: HL-60 (ATCC CCL-240)
Source text: (§1) Therefore, we performed TPP with compound concentration range (TPP-CCR) experiments according to published procedures. In brief, after preparing tryptic peptides from the non-denatured protein fractions (used for immunoblotting in the previous sections) applying the SP3 method, the peptides were labeled using TMT10plex, coding for inhibitor concentration, and the samples belonging to a TMT set were combined, offline high-pH fractionated, and analyzed by MS.
(§2) HL-60 cells were expanded as described above for CETSA and TPP-TR to 1.25 million cells per milliliter. […] A number of 2.5 million cells in 2 mL of medium were added to each tube and incubated (1 h, 37 °C). After centrifugation (300 rcf, 3 min, r.t.) and removing all of the supernating culture medium, the cells were washed once with 2 mL and once with 0.5 mL PBS (r.t.) by gently resuspending the cells, followed by centrifugation (300 rcf, 3 min, r.t.) and the complete removal of the supernatants.
(§3) After transferring the cells from the 2 mL Eppendorf tubes into correspondingly labeled PCR tubes (tube strips) using 100 µL of ice-cold PBS supplemented with protease inhibitors for resuspending the cells, the samples were further processed as described above for CETSA and TPP-TR, however, by applying a single treatment temperature of 51 °C.
(§4) For each sample set comprising ten compound concentration range samples, a same volume of the cell extracts containing the fraction of soluble, non-denatured proteins, corresponding to an average of 5 µg total protein, was used for further analysis. The calculated volume was respectively transferred into PCR tubes of a tube strip and supplemented with SDS sample buffer without DTT and bromophenol blue (final concentrations: 7.5% glycerol, 3% SDS, 37.5 mM Tris/HCl pH 7.0) and ddH2O to a final volume of 10 µL, respectively. Reduction and alkylation were performed by addition of 2.5 µL 100 mM dithiothreitol (DTT; incubation: 20 min, 56 °C, 1000 rpm in an Eppendorf ThermoMixer C, covering the tubes with aluminum foil to minimize condensation in the lids) and 3.33 µL 300 mM iodoacetamide (IAA; incubation: 15 min, r.t., in the dark without shaking), as well as 2.5 µL 100 mM DTT (incubation: 15 min, r.t., without shaking; quenching of excess of IAA). […] The beads were collected and washed (3× 200 µL 80% ethanol p.a. in HPLC-MS grade water, 1 × 200 µL acetonitrile (ACN; HPLC gradient grade)) using a device for handling of magnetic particles [patent US20100200405A1]. The ACN of the last washing step was completely removed by aspiration without letting the beads dry out.
(§5) Tryptic digest was performed on-bead by resuspending (use of an ultrasound bath may be required) the beads in 20 µL 50 mM TEAB in HPLC-MS grade water containing 0.1 µg Trypsin/Lys-C mix and 16.5 h incubation at 37 °C and 1000 rpm (Eppendorf ThermoMixer C, covering the tubes with aluminum foil to minimize condensation in the lids). Tryptic fragmentation of proteins was optimized by addition of another 0.1 µg of Trypsin/Lys-C mix in 2 µL 50 mM TEAB and 4 h incubation at 37 °C and 1000 rpm. After centrifugation for about 1 min in a table top centrifuge and magnetic concentration and retention of the beads at the inner tube wall, the supernatants containing the peptides were transferred into new PCR tubes (of tube strips) and were stored at −80 °C. The beads were discarded.
(§6) Half of the peptide samples (11 µL containing about 2.5 µg peptides) were transferred into new PCR tubes (of tube strips) and allowed to equilibrate to r.t. TMT labeling reagents were reconstituted as described for the TPP-TR samples, and 1 µL each was added to the reconstituted peptides according to the following scheme and homogenized immediately by aspiration and dispensing:
(§7) Peptide separation was performed as described above for the analysis of TPP-TR samples. […]

OGDH = molecular target: T2, OGDH (Homo sapiens, UniProt Q02218); experiment: TPP-CCR in living HL-60 cells; type: cell-based
T2 construct: endogenous in cells; host or cells: HL-60 (ATCC CCL-240)
T2 sequence (Q02218 41-1023): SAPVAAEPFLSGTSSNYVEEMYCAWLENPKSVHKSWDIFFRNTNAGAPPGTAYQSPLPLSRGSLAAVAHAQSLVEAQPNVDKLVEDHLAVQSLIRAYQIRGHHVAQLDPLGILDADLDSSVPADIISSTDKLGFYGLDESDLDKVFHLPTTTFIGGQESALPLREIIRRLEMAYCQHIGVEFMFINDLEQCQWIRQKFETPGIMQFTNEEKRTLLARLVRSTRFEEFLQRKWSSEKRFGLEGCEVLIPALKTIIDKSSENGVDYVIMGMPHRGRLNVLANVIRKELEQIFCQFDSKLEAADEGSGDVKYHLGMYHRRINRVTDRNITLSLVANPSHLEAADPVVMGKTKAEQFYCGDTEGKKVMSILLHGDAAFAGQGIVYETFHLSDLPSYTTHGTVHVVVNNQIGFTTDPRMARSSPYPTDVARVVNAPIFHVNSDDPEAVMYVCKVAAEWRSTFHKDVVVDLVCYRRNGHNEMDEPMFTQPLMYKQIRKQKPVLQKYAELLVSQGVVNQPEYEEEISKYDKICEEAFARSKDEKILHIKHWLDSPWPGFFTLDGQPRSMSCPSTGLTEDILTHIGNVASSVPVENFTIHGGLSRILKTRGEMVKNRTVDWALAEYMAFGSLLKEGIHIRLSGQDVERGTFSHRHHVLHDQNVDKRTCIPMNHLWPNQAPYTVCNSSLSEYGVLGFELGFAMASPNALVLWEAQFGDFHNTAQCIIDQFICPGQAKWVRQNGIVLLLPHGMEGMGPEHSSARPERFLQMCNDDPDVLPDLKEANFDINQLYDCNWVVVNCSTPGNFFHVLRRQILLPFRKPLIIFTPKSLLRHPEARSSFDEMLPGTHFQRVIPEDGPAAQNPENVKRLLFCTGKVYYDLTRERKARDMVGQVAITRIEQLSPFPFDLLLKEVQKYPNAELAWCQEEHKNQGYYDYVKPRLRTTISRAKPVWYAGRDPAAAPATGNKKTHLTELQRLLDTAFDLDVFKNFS
Source text: as §1, §2, §3, §4, §5, §6, §7

[1] = living HL-60 cells, […] °C, TMT-MS

T1 sequence (A6NIH7 whole entry): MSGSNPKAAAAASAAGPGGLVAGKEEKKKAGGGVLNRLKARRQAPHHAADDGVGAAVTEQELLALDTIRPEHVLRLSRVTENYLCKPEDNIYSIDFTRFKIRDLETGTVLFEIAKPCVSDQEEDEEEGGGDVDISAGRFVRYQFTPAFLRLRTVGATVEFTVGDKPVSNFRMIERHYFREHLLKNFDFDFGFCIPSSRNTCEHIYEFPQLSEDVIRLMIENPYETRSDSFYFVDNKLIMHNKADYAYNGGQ

Cc1cnc(Nc2ccc(F)cc2Cl)nc1-c1c[nH]c(C(=O)N[C@H](CO)c2cccc(Cl)c2)c1 [ERK 11e]
Hill slope (UNC119B; TPP-CCR, living cells, UNC119B): 0.67 | Hill slope (UNC119B) (UNC119B; [1]): 0.67 | EC50 (UNC119B; living HL-60 cells, […] °C, TMT-MS, read-out: pEC50 (UNC119B) (converted)): 1.05 µM | Hill slope (OGDH; TPP-CCR, living cells, OGDH): 0.43 | EC50 (OGDH; [1]): 0.417 µM | Hill slope (OGDH) (OGDH; [1]): 0.43
